From patent US9493506B2 (Enanta Pharmaceuticals, Inc., priority 2010, dated 2016)

Experiments:
Format in all cases: cell-based, hepatitis C virus (genotype 1a-H77)
[1] = tested on: HCV replicon with a D168E mutation in a 1a-H77 background; experiment: transient replicon assay, D168E mutation in 1a-H77 background; settings: Hepatitis C virus, read-out: EC50 in a transient replicon assay with a D168E mutation in a 1a-H77 background
In short: (§1)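 Transient transfection of mutant replicon RNA (1a-H77 with NS2–NS5B, or 1b-N with NS3–NS5B plus E1202G/S2204I) by electroporation into IFN-cured Huh7 cells, plated at 7.5×10^3 cells per well in DMEM with 5% FBS. Serial compound dilutions added 4 h post-transfection (0.5% DMSO final).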

[2] = tested on: HCV replicon with a D168V mutation in a 1a-H77 background; experiment: transient replicon assay, D168V mutation in 1a-H77 background; settings: Hepatitis C virus, read-out: EC50 in a transient replicon assay with a D168V mutation in a 1a-H77 background
In short: as §1

[3] = tested on: HCV replicon with a R155K mutation in a 1a-H77 background; experiment: transient replicon assay, R155K mutation in 1a-H77 background; settings: Hepatitis C virus, read-out: EC50 in a transient replicon assay with a R155K mutation in a 1a-H77 background
In short: as §1

| Structure (SMILES) | EC50 [1] [nM] | EC50 [2] [nM] | EC50 [3] [nM] |
| --- | --- | --- | --- |
| CCc1nc2cccc(F)c2nc1O[C@@H]1C[C@H]2C(=O)N[C@]3(C(=O)NS(=O)(=O)C4CC4)C[C@H]3/C=C\CCCCC[C@H](NC(=O)c3cc(C)on3)C(=O)N2C1 [Example 162, N-((2R,6S,13aS,14aR,16aS,Z)-14a-(cyclopropylsulfonylcarbamoyl)-2-(3-ethyl-8-fluoroquinoxalin-2-yloxy)-5,16-dioxo-1,2,3,5,6,7,8,9,10,11,13a,14,14a,15,16,16a-hexadecahydrocyclopropa[e]pyrrolo[1,2-a][1,4]diazacyclopentadecin-6-yl)-5-methylisoxazole-3-carboxamide] | 3 to 20 | 50 to 250 | 1 to 10 |
| Cc1nc2ccc(F)cc2nc1O[C@@H]1C[C@H]2C(=O)N[C@]3(C(=O)NS(=O)(=O)C4CC4)C[C@H]3/C=C\CCCCC[C@H](NC(=O)OC(C)(C)C)C(=O)N2C1 [Example 20, tert-butyl (2R,6S,13aS,14aR,16aS,Z)-14a-(cyclopropylsulfonylcarbamoyl)-2-(7-fluoro-3-methylquinoxalin-2-yloxy)-5,16-dioxo-1,2,3,5,6,7,8,9,10,11,13a,14,14a,15,16,16a-hexadecahydrocyclopropa[e]pyrrolo[1,2-a][1,4]diazacyclopentadecin-6-ylcarbamate] | 3 to 20 | 25 to 50 | < 1 |
| Cc1nc2c(Br)cc(F)cc2nc1O[C@@H]1C[C@H]2C(=O)N[C@]3(C(=O)NS(=O)(=O)C4(C)CC4)C[C@H]3/C=C\CCCCC[C@H](NC(=O)c3ccon3)C(=O)N2C1 [Example 100, N-((2R,6S,13aS,14aR,16aS,Z)-2-(5-bromo-7-fluoro-3-methylquinoxalin-2-yloxy)-14a-(1-methylcyclopropylsulfonylcarbamoyl)-5,16-dioxo-1,2,3,5,6,7,8,9,10,11,13a,14,14a,15,16,16a-hexadecahydrocyclopropa[e]pyrrolo[1,2-a][1,4]diazacyclopentadecin-6-yl)isoxazole-3-carboxamide] | 3 to 20 | < 25 | < 1 |
| CC(F)(F)c1nc2ccccc2nc1O[C@@H]1C[C@H]2C(=O)N[C@]3(C(=O)NS(=O)(=O)C4CC4)C[C@H]3/C=C\CCCCC[C@H](NC(=O)c3ccon3)C(=O)N2C1 [Example 3, N-((2R,6S,13aS,14aR,16aS,Z)-14a-(cyclopropylsulfonylcarbamoyl)-2-(3-(1,1-difluoroethyl)quinoxalin-2-yloxy)-5,16-dioxo-1,2,3,5,6,7,8,9,10,11,13a,14,14a,15,16,16a-hexadecahydrocyclopropa[e]pyrrolo[1,2-a][1,4]diazacyclopentadecin-6-yl)isoxazole-3-carboxamide] | < 3 | 50 to 250 | < 1 |
| CCc1nc2ccc(F)cc2nc1O[C@@H]1C[C@H]2C(=O)N[C@]3(C(=O)NS(=O)(=O)C4(C)CC4)C[C@H]3/C=C\CCCCC[C@H](NC(=O)OC(C)(C)C)C(=O)N2C1 [Example 125, tert-butyl (2R,6S,13aS,14aR,16aS,Z)-2-(3-ethyl-7-fluoroquinoxalin-2-yloxy)-14a-(1-methylcyclopropylsulfonylcarbamoyl)-5,16-dioxo-1,2,3,5,6,7,8,9,10,11,13a,14,14a,15,16,16a-hexadecahydrocyclopropa[e]pyrrolo[1,2-a][1,4]diazacyclopentadecin-6-ylcarbamate] | 3 to 20 | 25 to 50 | < 1 |
| Cc1nc2c(Br)cc(F)cc2nc1O[C@@H]1C[C@H]2C(=O)N[C@]3(C(=O)NS(=O)(=O)C4(C)CC4)C[C@H]3/C=C\CCCCC[C@H](NC(=O)c3noc(C)c3C)C(=O)N2C1 [Example 102, N-((2R,6S,13aS,14aR,16aS,Z)-2-(5-bromo-7-fluoro-3-methylquinoxalin-2-yloxy)-14a-(1-methylcyclopropylsulfonylcarbamoyl)-5,16-dioxo-1,2,3,5,6,7,8,9,10,11,13a,14,14a,15,16,16a-hexadecahydrocyclopropa[e]pyrrolo[1,2-a][1,4]diazacyclopentadecin-6-yl)-4,5-dimethylisoxazole-3-carboxamide] | 3 to 20 | < 25 | < 1 |
| Cc1nc2ccc(F)cc2nc1O[C@@H]1C[C@H]2C(=O)N[C@]3(C(=O)NS(=O)(=O)C4CC4)C[C@H]3/C=C\CCCCC[C@H](NC(=O)c3noc(C)c3C)C(=O)N2C1 [Example 21, N-((2R,6S,13aS,14aR,16aS,Z)-14a-(cyclopropylsulfonylcarbamoyl)-2-(7-fluoro-3-methylquinoxalin-2-yloxy)-5,16-dioxo-1,2,3,5,6,7,8,9,10,11,13a,14,14a,15,16,16a-hexadecahydrocyclopropa[e]pyrrolo[1,2-a][1,4]diazacyclopentadecin-6-yl)-4,5-dimethylisoxazole-3-carboxamide] | < 3 | < 25 | < 1 |
| Cc1nc2cccc(F)c2nc1O[C@@H]1C[C@H]2C(=O)N[C@]3(C(=O)NS(=O)(=O)C4CC4)C[C@H]3/C=C\CCCCC[C@H](NC(=O)c3noc(C)c3C)C(=O)N2C1 [Example 57, N-((2R,6S,13aS,14aR,16aS,Z)-14a-(cyclopropylsulfonylcarbamoyl)-2-(8-fluoro-3-methylquinoxalin-2-yloxy)-5,16-dioxo-1,2,3,5,6,7,8,9,10,11,13a,14,14a,15,16,16a-hexadecahydrocyclopropa[e]pyrrolo[1,2-a][1,4]diazacyclopentadecin-6-yl)-4,5-dimethylisoxazole-3-carboxamide] | 3 to 20 | < 25 | < 1 |
| CC1(S(=O)(=O)NC(=O)[C@@]23C[C@H]2/C=C\CCCCC[C@H](NC(=O)c2ccon2)C(=O)N2C[C@H](Oc4nc5cc(F)ccc5nc4C(F)(F)F)C[C@H]2C(=O)N3)CC1 [Example 109, N-((2R,6S,13aS,14aR,16aS,Z)-2-(7-fluoro-3-(trifluoromethyl)quinoxalin-2-yloxy)-14a-(1-methylcyclopropylsulfonylcarbamoyl)-5,16-dioxo-1,2,3,5,6,7,8,9,10,11,13a,14,14a,15,16,16a-hexadecahydrocyclopropa[e]pyrrolo[1,2-a][1,4]diazacyclopentadecin-6-yl)isoxazole-3-carboxamide] | < 3 | < 25 | < 1 |
| CCc1nc2ccc(F)cc2nc1O[C@@H]1C[C@H]2C(=O)N[C@]3(C(=O)NS(=O)(=O)C4CC4)C[C@H]3/C=C\CCCCC[C@H](NC(=O)c3noc(C)c3C)C(=O)N2C1 [Example 123, N-((2R,6S,13aS,14aR,16aS,Z)-14a-(cyclopropylsulfonylcarbamoyl)-2-(3-ethyl-7-fluoroquinoxalin-2-yloxy)-5,16-dioxo-1,2,3,5,6,7,8,9,10,11,13a,14,14a,15,16,16a-hexadecahydrocyclopropa[e]pyrrolo[1,2-a][1,4]diazacyclopentadecin-6-yl)-4,5-dimethylisoxazole-3-carboxamide] | 3 to 20 | 50 to 250 | 1 to 10 |
| CCc1nc2ccc(F)cc2nc1O[C@@H]1C[C@H]2C(=O)N[C@]3(C(=O)NS(=O)(=O)C4CC4)C[C@H]3/C=C\CCCCC[C@H](NC(=O)c3cc(C)on3)C(=O)N2C1 [Example 124, N-((2R,6S,13aS,14aR,16aS,Z)-14a-(cyclopropylsulfonylcarbamoyl)-2-(3-ethyl-7-fluoroquinoxalin-2-yloxy)-5,16-dioxo-1,2,3,5,6,7,8,9,10,11,13a,14,14a,15,16,16a-hexadecahydrocyclopropa[e]pyrrolo[1,2-a][1,4]diazacyclopentadecin-6-yl)-5-methylisoxazole-3-carboxamide] | 20 to 50 | 50 to 250 | 1 to 10 |
